Converted amounts (≈) assume the structure as drawn.
How the values were obtained:
Assay in all cases: MIC, agar dilution
Format in all cases: cell-based
B. subtilis PCI 219 = details: Bacillus subtilis, PCI219, Mueller-Hinton agar pH 7.2, 32° C., 18 hr, 10^6 cells/ml
Description: (§1) Minimum inhibitory concentrations (MICs) of the present series of cephalosporins were determined against 32 strains of test organisms by two-fold serial agar dilution method in Mueller-Hinton agar. Geometric means of MICs were calculated against six groups of the test organisms which are classified as follows and summarized in Table 1.
(§2) Medium; MuellerHinton agar (pH = 7.2)
(§3) Incubation temperature: 32° C., 18 hr
(§4) Inoculum size; 10^6 cells/ml

C. freundii GN 7391 = details: Citrobacter freundii, GN7391, Mueller-Hinton agar pH 7.2, 32° C., 18 hr, 10^6 cells/ml
Description: as §1, §2, §3, §4

C. terrigena IFO 12685 = details: Mueller-Hinton agar pH 7.2, 32° C., 18 hr, 10^6 cells/ml
Description: as §1, §2, §3, §4

E. cloacae IPM-12 = details: Enterobacter cloacae, IPM12, Mueller-Hinton agar pH 7.2, 32° C., 18 hr, 10^6 cells/ml
Description: as §1, §2, §3, §4

E. coli 255 = details: Escherichia coli, Mueller-Hinton agar pH 7.2, 32° C., 18 hr, 10^6 cells/ml
Description: as §1, §2, §3, §4

E. faecalis A9808 = details: Enterococcus faecalis, Mueller-Hinton agar pH 7.2, 32° C., 18 hr, 10^6 cells/ml
Description: as §1, §2, §3, §4

E. faecium A24817 = details: Enterococcus faecium, Mueller-Hinton agar pH 7.2, 32° C., 18 hr, 10^6 cells/ml
Description: as §1, §2, §3, §4

K. pneumoniae PCI 602 = details: Klebsiella pneumoniae, PCI602, Mueller-Hinton agar pH 7.2, 32° C., 18 hr, 10^6 cells/ml
Description: as §1, §2, §3, §4

M. luteus 1001 = details: Micrococcus luteus, Mueller-Hinton agar pH 7.2, 32° C., 18 hr, 10^6 cells/ml
Description: as §1, §2, §3, §4

M. morgani 1510/9 = details: Mueller-Hinton agar pH 7.2, 32° C., 18 hr, 10^6 cells/ml
Description: as §1, §2, §3, §4

M. morgani 1510 = details: Mueller-Hinton agar pH 7.2, 32° C., 18 hr, 10^6 cells/ml
Description: as §1, §2, §3, §4

P. aeruginosa A20599 = details: Pseudomonas aeruginosa, Mueller-Hinton agar pH 7.2, 32° C., 18 hr, 10^6 cells/ml
Description: as §1, §2, §3, §4

P. aeruginosa IPM-8 = details: Pseudomonas aeruginosa, IPM8, Mueller-Hinton agar pH 7.2, 32° C., 18 hr, 10^6 cells/ml
Description: as §1, §2, §3, §4

P. aeruginosa IPM-9 = details: Pseudomonas aeruginosa, IPM9, Mueller-Hinton agar pH 7.2, 32° C., 18 hr, 10^6 cells/ml
Description: as §1, §2, §3, §4

P. aeruginosa KKA 19 = details: Pseudomonas aeruginosa, KKA19, Mueller-Hinton agar pH 7.2, 32° C., 18 hr, 10^6 cells/ml
Description: as §1, §2, §3, §4

P. cepacia A21213 = details: Burkholderia cepacia, Mueller-Hinton agar pH 7.2, 32° C., 18 hr, 10^6 cells/ml
Description: as §1, §2, §3, §4

P. cepacia No. 651 = details: Burkholderia cepacia, Mueller-Hinton agar pH 7.2, 32° C., 18 hr, 10^6 cells/ml
Description: as §1, §2, §3, §4

P. mirabilis IFO-2849 = details: Proteus mirabilis, IFO2849, Mueller-Hinton agar pH 7.2, 32° C., 18 hr, 10^6 cells/ml
Description: as §1, §2, §3, §4

P. rettgeri IPM-14 = details: Providencia rettgeri, IPM14, Mueller-Hinton agar pH 7.2, 32° C., 18 hr, 10^6 cells/ml
Description: as §1, §2, §3, §4

P. vulgaris IPM-13 = details: Proteus vulgaris, IPM13, Mueller-Hinton agar pH 7.2, 32° C., 18 hr, 10^6 cells/ml
Description: as §1, §2, §3, §4

S. aureus 209P = details: Staphylococcus aureus; S. aureus 209P; Mueller-Hinton agar pH 7.2; 32° C., 18 hr; 10^6 cells/ml; read-out: MIC
Description: as §1, §2, §3, §4

S. aureus 4-1015 (MRSA) = details: Staphylococcus aureus, Mueller-Hinton agar pH 7.2, 32° C., 18 hr, 10^6 cells/ml
Description: as §1, §2, §3, §4

S. aureus IPM-24 (MRSA) = details: Staphylococcus aureus, Mueller-Hinton agar pH 7.2, 32° C., 18 hr, 10^6 cells/ml
Description: as §1, §2, §3, §4

S. epidermidis 11-1230 = details: Staphylococcus epidermidis, 111230, Mueller-Hinton agar pH 7.2, 32° C., 18 hr, 10^6 cells/ml
Description: as §1, §2, §3, §4

S. marcescens IPM-15 = details: Serratia marcescens, IPM15, Mueller-Hinton agar pH 7.2, 32° C., 18 hr, 10^6 cells/ml
Description: as §1, §2, §3, §4

S. marcescens IPM-16 = details: Serratia marcescens, IPM16, Mueller-Hinton agar pH 7.2, 32° C., 18 hr, 10^6 cells/ml
Description: as §1, §2, §3, §4

X. maltophilia GN 12873 = details: Stenotrophomonas maltophilia, GN12873, Mueller-Hinton agar pH 7.2, 32° C., 18 hr, 10^6 cells/ml
Description: as §1, §2, §3, §4

X. maltophilia No. 661 = details: Stenotrophomonas maltophilia, Mueller-Hinton agar pH 7.2, 32° C., 18 hr, 10^6 cells/ml
Description: as §1, §2, §3, §4

E. coli Juhl A15119 = details: Escherichia coli, JUHLA15119; E. coli Juhl A15119; Mueller-Hinton agar pH 7.2; 32° C., 18 hr; 10^6 cells/ml; read-out: MIC
Description: as §1
(§5) In vivo antibacterial activity was determined against three bacterial infections (S. aureus Smith, E. coli Juhl and P. aeruginosa A9843A) by intramuscular administration to mice just after the bacterial challenge. PD50 values are summarized in Table 3 in comparsion with the MIC values against the corresponding organisms.
as §2, §3, §4

P. aeruginosa A9843A = details: Pseudomonas aeruginosa, A9843A, 18 h, pH 7.2
Description: as §1, §5, §2, §3, §4

S. aureus Smith = details: Staphylococcus aureus; S. aureus Smith; Mueller-Hinton agar pH 7.2; 32° C., 18 hr; 10^6 cells/ml; read-out: MIC
Description: as §1, §5, §2, §3, §4

SMILES: Nc1nc(/C(=N/O)C(=O)NC2C(=O)N3C(C(=O)[O-])=C(/C=C/C[n+]4cc5cc(O)c(O)cc5cn4)CS[C@H]23)cs1 (stereo partly shown) [Ik, 7-[(Z)-2-(2-Aminothiazol-4-yl)-2-hydroxyimino-acetamido]-3-[(E)-3-(6,7-dihydroxyphthalazin-2-io)-1-propen--1-yl]-3-cephem-4-carboxylate]
- MIC (B. subtilis PCI 219): 0.4 µg/mL (≈ 0.702 µM)
- MIC (C. freundii GN 7391): > 100 µg/mL
- MIC (C. terrigena IFO 12685): 0.8 µg/mL (≈ 1.4 µM)
- MIC (E. cloacae IPM-12): > 100 µg/mL
- MIC (E. coli 255): 0.2 µg/mL (≈ 0.351 µM)
- MIC (E. faecalis A9808): 6.3 µg/mL (≈ 11.1 µM)
- MIC (E. faecium A24817): 50 µg/mL (≈ 87.8 µM)
- MIC (K. pneumoniae PCI 602): 0.05 µg/mL (≈ 0.0878 µM)
- MIC (M. luteus 1001): 0.4 µg/mL (≈ 0.702 µM)
- MIC (M. morgani 1510/9): 0.1 µg/mL (≈ 0.176 µM)
- MIC (M. morgani 1510): 6.3 µg/mL (≈ 11.1 µM)
- MIC (P. aeruginosa A20599): > 100 µg/mL
- MIC (P. aeruginosa IPM-8): > 100 µg/mL
- MIC (P. aeruginosa IPM-9): > 100 µg/mL
- MIC (P. aeruginosa KKA 19): > 100 µg/mL
- MIC (P. cepacia A21213): > 100 µg/mL
- MIC (P. cepacia No. 651): 100 µg/mL (≈ 176 µM)
- MIC (P. mirabilis IFO-2849): 0.2 µg/mL (≈ 0.351 µM)
- MIC (P. rettgeri IPM-14): 1.6 µg/mL (≈ 2.81 µM)
- MIC (P. vulgaris IPM-13): > 100 µg/mL
- MIC (S. aureus 209P): 0.8 µg/mL (≈ 1.4 µM)
- MIC (S. aureus 4-1015 (MRSA)): 3.1 µg/mL (≈ 5.44 µM)
- MIC (S. aureus IPM-24 (MRSA)): 12.5 µg/mL (≈ 21.9 µM)
- MIC (S. epidermidis 11-1230): 1.6 µg/mL (≈ 2.81 µM)
- MIC (S. marcescens IPM-15): > 100 µg/mL
- MIC (S. marcescens IPM-16): > 100 µg/mL
- MIC (X. maltophilia GN 12873): > 100 µg/mL
- MIC (X. maltophilia No. 661): > 100 µg/mL
- MIC (E. coli Juhl A15119): 0.4 µg/mL (≈ 0.702 µM)
- MIC (P. aeruginosa A9843A): > 100 µg/mL
- MIC (S. aureus Smith): 0.8 µg/mL (≈ 1.4 µM)

Source: US5126336A, “Antibiotic C-3 catechol-substituted cephalosporin compounds, compositions and method of use thereof” (Bristol-Myers Squibb Company, priority 1990, dated 1992)
